# According to patent US20090054319A1, “Methods and Compositions for the Treatment of Hypertension and Gastrointestinal Disorders” (MICROBIA, INC., priority 2005, published 2009):
# Bridges are numbered along the chain shown (N, C = ends). Where no end group is shown, it is not given here.
# Experiments:
# chymotrypsin [1] = target: T1, chymotrypsin (Bos taurus, UniProt P00766, DEL14-15/DEL147-148); assay: T84 cGMP assay to assess guanylin activity after a chymotrypsin digestion assay (guanylin degradation assay); assay type: biochemical, bovine; settings: T84 cells, FIG. 1
# T1 construct: purchased Sigma C6423
# Description: Since guanylin is susceptible to digestion by chymotrypsin, chymotrypsin activity can be assayed based on guanylin cleavage. […] From this stock, six (6) 500 μl aliquots were prepared in 2 ml Eppendorf tubes and labeled “Control”, “T0”, “T15”, “T30”, “T60”, and “T180”, with “T_” representing timepoints, in minutes. 5 μl of a 10 mM chymostatin (Sigma, C7268) stock (5 mg of chymostatin resuspended in 824 μl of DMSO) was added to the “Control” samples and all samples were incubated for 5 minutes at 30° C. Chymostatin inhibits chymotrypsin activity and this sample served as a negative control. Next, 20 μl of a chymotrypsin (Sigma, C6423) enzyme solution (0.01 mg/ml bovine chymotrypsin enzyme in 1 mM HCl, 2 mM Calcium Chloride) were added to the samples and mixed by inversion. Samples are incubated at 30° C. […] Determination of sensitivity to digestion by chymotrypsin was determined by LCMS analysis and by in vitro activity in the T84 cGMP assays described below.
# The ability of guanylin to activate the intestinal GC-C receptor was assessed in an assay employing the T84 human colon carcinoma cell line (American Type Culture Collection (Bethesda, Md.). For the assays cells were grown to confluency in 24-well culture plates with a 1:1 mixture of Ham's F12 medium and Dulbecco's modified Eagle's medium (DMEM), supplemented with 5% fetal calf serum and were used at between passages 54 and 60. […]
# chymotrypsin [2] = settings: cited from earlier work
# [3] = tested on: intestinal fluid secretion; settings: suckling mouse model; Santos-Neto et al 2003 Pharm & Toxicol 92:114; cited from earlier work
compound,measurement,setting,value
"CC(C)C[C@H](NC(=O)[C@@H](NC(=O)N[C@@H](Cc1ccccc1)C(=O)O)C1CCNC(=N)N1)C(=O)N[C@H](C=O)Cc1ccccc1 (stereo partly drawn) [chymostatin, N—(Na-Carbonyl-[S,S]-a-(2-Iminohexahydro-4-pyrimidyl)glycine)-X-Phe-al)-Phe where X is Leu, Val or Ile]",guanylin stimulated cGMP activity when chymotrypsin inhibitor present,chymotrypsin [1]; chymostatin present during chymotrypsin digestion of guanylin,retained
same,chymotrypsin-mediated inactivation of guanylin,chymotrypsin [2],can be prevented
same,guanylin-induced intestinal fluid secretion,[3],required in order to observe guanylin-induced intestinal fluid secretion
"bovine chymotrypsin enzyme (Sigma, C6423)",guanylin degradation assay: loss of guanylin-stimulated cGMP activity and LC/MS of guanylin processing,"Guanylin (Sigma, G-116)",guanylin stimulated cGMP activity decreases over time in the presence of chymotrypsin
"guanylin: intestinal peptide that stimulates chloride secretion; mature protein has 15 amino acids; agonist of the GC-C receptor (PGTCEICAYAACTGC; disulfide 4-12, 7-15; UniProt Q02747 101-115, looked up)",guanylin stimulated cGMP activity,"chymotrypsin [1]; in the presence of chymotrypsin, timepoints 0-180 min at 30° C.",decreases over time
same,cleavage of guanylin by chymotrypsin,"chymotrypsin [2]; Greenberg et al. J Investig Med 45:276-82, 1997",chymotrypsin can cleave guanylin
